Laboratory results as given in the NIST ThermoML archive (doi:10.1021/acs.jced.5b00474).

Assay: xn = mol fraction of the nth substance listed
Settings: 101 kPa, Liquid; for speed of sound: Frequency=3 MHz, Sing-around technique in a fixed-path interferometer; for mass density: Vibrating tube method

O=C1CCCN1 [2-pyrrolidinone] + ClC(Cl)Cl
Settings	mass density [kg/m3]	speed of sound [m/s]
293.15 K, x1 = 0.1002	1457.64	1033.4
293.15 K, x1 = 0.199	1424.67	1074.6
293.15 K, x1 = 0.3019	1388.18	1124.8
293.15 K, x1 = 0.4027	1351	1179
293.15 K, x1 = 0.5022	1313.31	1238.7
293.15 K, x1 = 0.697	1235.75	1374.5
293.15 K, x1 = 0.7992	1194.43	1457.3
293.15 K, x1 = 0.9	1152.99	1548.8
293.15 K, x1 = 1	1111.44	1649.3
293.16 K, x1 = 0.6054	1272.91	1307.2
295.15 K, x1 = 0.199	1421.54	–
295.15 K, x1 = 0.3019	1385.33	–
295.15 K, x1 = 0.4027	1348.4	–
295.15 K, x1 = 0.5022	1310.93	–
295.15 K, x1 = 0.6054	1270.72	–
295.15 K, x1 = 0.697	1233.71	–
295.15 K, x1 = 0.7992	1192.54	–
295.15 K, x1 = 0.9	1151.23	–
298.15 K, x1 = 0.1002	1449.07	1017.4
298.15 K, x1 = 0.199	1416.87	1059.6
298.15 K, x1 = 0.3019	1381.1	1109.8
298.15 K, x1 = 0.4027	1344.53	1164.5
298.15 K, x1 = 0.5022	1307.38	1223.7
298.15 K, x1 = 0.6054	1267.47	1292.9
298.15 K, x1 = 0.697	1230.66	1358.9
298.15 K, x1 = 1	1107.35	1632.9
298.16 K, x1 = 0.7992	1189.72	1442.2
298.16 K, x1 = 0.9	1148.6	1533.3
301.15 K, x1 = 1	1104.88	–
303.15 K, x1 = 0.1002	1440.46	1001.5
303.15 K, x1 = 0.199	1409.07	1044
303.15 K, x1 = 0.3019	1374	1094.7
303.15 K, x1 = 0.4027	1338.05	1149.5
303.15 K, x1 = 0.5022	1301.43	1208.6
303.15 K, x1 = 0.697	1225.58	1343.1
303.15 K, x1 = 0.7992	1184.99	1426.5
303.15 K, x1 = 0.9	1144.21	1517.3
303.15 K, x1 = 1	1103.26	1616.7
303.16 K, x1 = 0.6054	1262	1278.2
308.15 K, x1 = 0.1002	1431.81	985.52
308.15 K, x1 = 0.199	1401.22	1028.3
308.15 K, x1 = 0.4027	1331.55	1134.4
308.15 K, x1 = 0.5022	1295.47	1193.5
308.15 K, x1 = 0.6054	1256.52	1263.1
308.15 K, x1 = 0.697	1220.48	1327.1
308.15 K, x1 = 0.7992	1180.28	1411
308.15 K, x1 = 0.9	1139.82	1501.5
308.15 K, x1 = 1	1099.17	1600.5
308.16 K, x1 = 0.3019	1366.88	1079.5
313.15 K, x1 = 1	1095.08	1584.5
318.16 K, x1 = 1	1091	1568.6
323.16 K, x1 = 1	1086.92	1552.8
